Data taken from patent US9939427B2, “Method for evaluating the scent performance of perfumes or perfume mixtures” (Symrise AG, priority 2013, dated 2018).

Columns and labels:
[1] = target: T1, OR10Q1 (Homo sapiens, UniProt Q8NGQ4); test: Ca-imaging of OR10Q1-transfected HEK293 cells; format: cell-based; set-up: key to OR10Q1 responded to odorant: ▪: 18 olfactory receptors responded to 32 odorants in related with specific anosmia; details: for Response of OR10Q1 to odorant, in words: single odorants 200 μM
T1 construct: specific primers, which amplify the complete open reading frame; expressed in transfected cells; host or cells: HEK293
T1 sequence (Q8NGQ4 1-319): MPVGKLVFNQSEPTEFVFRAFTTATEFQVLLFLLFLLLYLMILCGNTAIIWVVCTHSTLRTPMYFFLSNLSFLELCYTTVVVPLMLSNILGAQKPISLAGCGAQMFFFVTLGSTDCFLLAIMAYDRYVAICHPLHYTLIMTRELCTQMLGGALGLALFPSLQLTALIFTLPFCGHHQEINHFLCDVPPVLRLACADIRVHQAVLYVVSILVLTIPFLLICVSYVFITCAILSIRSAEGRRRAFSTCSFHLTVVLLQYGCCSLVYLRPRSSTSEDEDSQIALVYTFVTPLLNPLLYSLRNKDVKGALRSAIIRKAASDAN
Experimental: HEK293 cells were cultivated in Petri dishes (Ø35 mm) as previously described (Benbernou et al. 2007). We grow up HEK293 cells in culture medium containing standard DMEM with 10% heat-inactivated fetal bovine serum, 2 mM L-glutamine, 100 units/ml penicillin, and 100 units/ml streptomycin in a humidified atmosphere (37° C., 5% CO2). After 2-3 days, the transfection process was carried out, whereby the cell culture was 70-80% confluent. The calciumphosphate method was applied to transfect DNA plasmid transiently in HEK293 cells in case of Ca-imaging method.
Calcium cations and phosphate anions created crystal precipitations coupled with DNA which could invade into the cells through endocytosis. Cells were transiently transfected with plasmid DNA which consists of pCI expression vector and PCR-amplified full-length cDNA of olfactory receptors candidates, and also Gα15, RTP1, Myr-Ric8A, HSC70, and m-Cherry as cofactors. The precipitation could be created after 15-20 min, with dropping the transfection solution on HEK293 cells. Before measuring by Ca-imaging cells were incubated 48-60 hours at 370 C, 5% CO2. Cationic liposome-mediated transfection method was applied to transfect DNA plasmid transiently in HANA3A cells in case of CRE-Luciferase and CRE-SEAP assays.
Calcium imaging of the transfected HEK293 cells was done by using chambers determinate an inverted microscope (Olympus; IX70) using a 10× objective (CPIanFL N Olympus). Fluorescence emission was determined every 4 s by using a CCD camera (Charge Coupled Device, C9100 Hamamatsu). The capillary tube which was responsible to supply odorants was generated closely above the cells. The columns filled with odorants, DMSO and ATP. Odorants were manually monitored to drop each 4-5 s to transfected cells. Solutions with drop wise form spread on HEK293 cells in 35 mm dishes.
In experiments, Fura-2 Acetoxymethylester (Fura-2/AM) was applied. The non-polar Fura2/AM is fluorescent but not yet calcium-sensitive. Once diffuses into cell plasma, Fura-2/AM is hydrolyzed to Fura-2 which is calcium-sensitive and functions as Ca2+ chelator. Regardless of the presence of calcium, Fura-2 emits at the wavelength of 510 nm. Once Fura-2 binds to free intracellular Ca2+ in cell plasma, its ratio of excitation at wavelengths of 340 nm and 380 nm is changed and correlated to the amount of intracellular Ca2+. According to this feature, the analysis of 340/380 nm excitation ratio for Fura-2 allows to quantify intracellular calcium levels.
In preparation for Ca-imaging measurements, transfected HEK293 cells were added 3 it Fura2/AM (3 μM) and incubated 30-45 min at 370 C, 5% CO2. After this step, experiments were carried out in a dark condition (Fura-2 is light-sensitive). After the incubation, medium of cell culture was replaced with 2 ml Ringer's solution.
Odorants were freshly prepared with DMSO as 1 M stocks solutions. Six mixtures (200 μM each chemical) were applied to cells sequentially (20 s each mixture/30 s Ringer). Those ORs tested with single odorants that had generated a response to odorant mixture group previously. Odorants were prepared in 100-200 μM concentration.
Ringer's solution was used for washing cells between measuring by two different odorants. Positive response was determined by the timing of the response, the strength of the response (more than twofold higher than the noise amplitude of the baseline), and the shape of the response curve (sharp rise in curve with gradual recovery). […]

[2] = test system: HEK293 cells transfected with all cofactors and pCI plasmids without ORs; test: Ca-imaging of control HEK293 cells without OR; format: cell-based
Summary of the method: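 HEK293 cells transfected by calcium phosphate with empty pCI plus Gα15, RTP1, Myr-Ric8A, HSC70 and mCherry, incubated 48–60 h, then loaded with 3 µM Fura-2/AM for 30–45 min. Odorants in Ringer's applied as mixtures at 200 µM each or singly at 100–200 µM, with 0.25 mM ATP at the end. Ca2+ followed as 340/380 nm ratio every 4 s; responses as ΔF/F0, judged by timing, amplitude above twice baseline noise and curve shape.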

## O=C1CCCCCCCCCCCCCCO1 [Pentadecanolide, ω-cyclopentadecanolide]
[1]; Ca-imaging, HEK293 cells, individual odorant 200 μM, significant response p<0.05
  OR10Q1 responded to odorant: ▪
[1]; Ca-imaging
  Response of OR10Q1 to odorant, in words: responded
[1]; Ca-imaging, listed as Cyclopentadecanolide
  Response of OR10Q1 to odorant, in words: significantly responded
[1]; Ca-imaging, listed as Pentadecalactone
  Response of OR10Q1 to odorant, in words: responded
[1]; odorant 200 μM, approximately 2000 transfected cells in three times of measuring (Table 4, FIG. 5)
  Number of cell responses, Experiment (OR10Q1): 52
[2]; 200 μM (FIG. 13)
  Response of control cells, in words: did not respond
[2]; odorant 200 μM, three times of measuring (Table 4, FIG. 5)
  Number of cell responses, Control: 2
